In patent US20090304692A1, “TRIAZINE COMPOUNDS AS PI3 KINASE AND MTOR INHIBITORS” (Wyeth, priority 2008, published 2009):
“And” between values parts separate entries of the source, which are not always exact repeats. Equal values may be shown once. Read-outs that look alike come from different tables or passages of the source.

Assays:
Human mTOR (FLAG-TOR) = Human mTOR (FLAG-TOR) (Homo sapiens, UniProt P42345); assay: mTOR kinase assay (DELFIA format, purified enzyme); assay type: biochemical; conditions: read-out: IC50 mTOR
Human mTOR (FLAG-TOR), sequence (P42345 1360-2549 limits assumed): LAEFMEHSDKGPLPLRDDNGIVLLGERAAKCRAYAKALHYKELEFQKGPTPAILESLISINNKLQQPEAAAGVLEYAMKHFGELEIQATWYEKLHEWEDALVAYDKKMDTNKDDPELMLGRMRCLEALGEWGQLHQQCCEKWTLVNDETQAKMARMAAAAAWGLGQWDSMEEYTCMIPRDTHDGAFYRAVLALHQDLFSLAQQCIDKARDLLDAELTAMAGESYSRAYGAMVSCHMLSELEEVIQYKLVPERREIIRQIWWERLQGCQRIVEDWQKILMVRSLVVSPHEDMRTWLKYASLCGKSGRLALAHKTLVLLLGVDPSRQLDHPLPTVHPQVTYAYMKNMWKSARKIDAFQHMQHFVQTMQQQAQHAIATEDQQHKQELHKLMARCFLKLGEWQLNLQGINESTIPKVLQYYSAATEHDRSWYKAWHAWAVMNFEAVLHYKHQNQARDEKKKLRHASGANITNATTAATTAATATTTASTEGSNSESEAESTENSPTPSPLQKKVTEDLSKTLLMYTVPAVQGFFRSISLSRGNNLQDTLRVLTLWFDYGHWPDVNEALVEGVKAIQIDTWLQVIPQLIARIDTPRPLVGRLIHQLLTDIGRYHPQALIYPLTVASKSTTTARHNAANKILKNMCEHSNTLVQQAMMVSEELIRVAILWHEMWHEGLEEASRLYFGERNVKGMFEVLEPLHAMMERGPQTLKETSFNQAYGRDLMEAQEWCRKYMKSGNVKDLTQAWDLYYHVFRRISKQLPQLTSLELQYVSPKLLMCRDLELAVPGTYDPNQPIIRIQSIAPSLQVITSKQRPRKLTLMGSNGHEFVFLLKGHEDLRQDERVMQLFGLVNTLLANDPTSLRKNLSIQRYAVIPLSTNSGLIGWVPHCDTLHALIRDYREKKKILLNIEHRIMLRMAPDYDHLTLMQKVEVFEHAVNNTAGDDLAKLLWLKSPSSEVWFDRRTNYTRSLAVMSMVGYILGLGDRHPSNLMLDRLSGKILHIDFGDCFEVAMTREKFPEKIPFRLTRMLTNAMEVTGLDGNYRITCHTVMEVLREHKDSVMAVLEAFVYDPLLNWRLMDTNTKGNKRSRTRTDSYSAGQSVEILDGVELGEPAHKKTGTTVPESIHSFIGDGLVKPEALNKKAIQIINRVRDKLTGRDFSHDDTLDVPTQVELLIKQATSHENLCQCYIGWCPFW

[1] = tested on: human breast MDA-MB-361 tumor cell line; assay: In vitro cell culture growth assay (MTS), MDA-MB-361; assay type: cell-based; conditions: Homo sapiens, MTS cell growth assay, three days after drug treatment, read-out: IC50 MDA-MB-361
[2] = tested on: human prostate PC3-mm2 tumor cell line; assay: In vitro cell culture growth assay (MTS), PC3-mm2; assay type: cell-based; conditions: Homo sapiens, PC3MM2, 72 h, MTS cell growth assay, three days after drug treatment, read-out: IC50 PC3-mm2
PI3K-α = PI3K-α (Homo sapiens, UniProt P42336); assay: PI3K-alpha fluorescence polarization assay; conditions: read-out: IC50 PI3Kα
PI3K-α, sequence (P42336 whole entry, species assumed): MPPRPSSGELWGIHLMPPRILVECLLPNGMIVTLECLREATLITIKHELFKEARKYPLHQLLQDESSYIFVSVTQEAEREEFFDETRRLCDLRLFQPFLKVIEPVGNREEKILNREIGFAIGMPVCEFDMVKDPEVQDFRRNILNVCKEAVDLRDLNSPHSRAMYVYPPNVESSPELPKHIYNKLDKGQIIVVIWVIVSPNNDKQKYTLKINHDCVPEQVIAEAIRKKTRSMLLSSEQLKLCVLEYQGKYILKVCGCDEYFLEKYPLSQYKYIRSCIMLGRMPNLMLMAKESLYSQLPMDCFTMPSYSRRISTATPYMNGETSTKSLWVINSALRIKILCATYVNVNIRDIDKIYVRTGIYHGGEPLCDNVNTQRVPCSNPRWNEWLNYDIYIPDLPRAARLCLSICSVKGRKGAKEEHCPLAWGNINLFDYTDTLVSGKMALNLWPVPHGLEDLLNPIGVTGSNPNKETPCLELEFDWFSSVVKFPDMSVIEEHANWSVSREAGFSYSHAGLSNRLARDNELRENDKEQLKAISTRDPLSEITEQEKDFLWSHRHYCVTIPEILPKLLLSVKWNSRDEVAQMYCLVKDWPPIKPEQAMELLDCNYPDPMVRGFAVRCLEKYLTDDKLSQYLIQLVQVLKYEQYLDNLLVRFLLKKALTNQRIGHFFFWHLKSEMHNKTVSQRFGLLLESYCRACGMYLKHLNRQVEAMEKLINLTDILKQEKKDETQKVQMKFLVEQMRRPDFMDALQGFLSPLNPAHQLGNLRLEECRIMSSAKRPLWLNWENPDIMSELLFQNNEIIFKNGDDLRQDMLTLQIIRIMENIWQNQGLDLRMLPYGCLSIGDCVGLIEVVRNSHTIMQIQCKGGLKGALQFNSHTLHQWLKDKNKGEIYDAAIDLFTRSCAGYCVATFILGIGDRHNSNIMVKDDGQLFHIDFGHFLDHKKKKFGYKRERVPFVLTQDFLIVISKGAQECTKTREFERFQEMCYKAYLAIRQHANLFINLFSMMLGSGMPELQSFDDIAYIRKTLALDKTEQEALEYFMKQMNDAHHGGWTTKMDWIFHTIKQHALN
PI3K-α, sequence (P27986 whole entry partner, species assumed): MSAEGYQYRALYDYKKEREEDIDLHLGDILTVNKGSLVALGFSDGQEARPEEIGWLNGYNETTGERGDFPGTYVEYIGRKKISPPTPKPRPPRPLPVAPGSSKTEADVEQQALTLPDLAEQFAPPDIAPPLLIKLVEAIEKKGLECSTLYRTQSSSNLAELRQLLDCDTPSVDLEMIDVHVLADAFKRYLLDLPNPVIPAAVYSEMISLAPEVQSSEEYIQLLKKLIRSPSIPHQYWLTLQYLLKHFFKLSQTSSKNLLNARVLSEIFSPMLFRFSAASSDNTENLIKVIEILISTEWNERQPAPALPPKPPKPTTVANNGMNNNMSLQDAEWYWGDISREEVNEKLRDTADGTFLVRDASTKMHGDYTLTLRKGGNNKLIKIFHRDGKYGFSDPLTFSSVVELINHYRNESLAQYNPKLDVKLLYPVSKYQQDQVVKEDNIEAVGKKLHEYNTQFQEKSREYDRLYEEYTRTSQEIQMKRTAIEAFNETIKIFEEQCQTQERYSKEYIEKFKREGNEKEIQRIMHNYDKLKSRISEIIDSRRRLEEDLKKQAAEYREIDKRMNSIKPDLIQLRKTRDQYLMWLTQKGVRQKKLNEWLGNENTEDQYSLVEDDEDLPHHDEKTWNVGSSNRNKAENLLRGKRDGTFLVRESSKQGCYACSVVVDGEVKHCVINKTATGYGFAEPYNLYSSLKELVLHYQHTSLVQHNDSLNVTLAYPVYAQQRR

PI3K-γ = PI3K-γ (Homo sapiens, UniProt P48736); assay: PI3K-gamma fluorescence polarization assay; conditions: read-out: IC50 PI3Kγ
PI3K-γ, sequence (P48736 whole entry, species assumed): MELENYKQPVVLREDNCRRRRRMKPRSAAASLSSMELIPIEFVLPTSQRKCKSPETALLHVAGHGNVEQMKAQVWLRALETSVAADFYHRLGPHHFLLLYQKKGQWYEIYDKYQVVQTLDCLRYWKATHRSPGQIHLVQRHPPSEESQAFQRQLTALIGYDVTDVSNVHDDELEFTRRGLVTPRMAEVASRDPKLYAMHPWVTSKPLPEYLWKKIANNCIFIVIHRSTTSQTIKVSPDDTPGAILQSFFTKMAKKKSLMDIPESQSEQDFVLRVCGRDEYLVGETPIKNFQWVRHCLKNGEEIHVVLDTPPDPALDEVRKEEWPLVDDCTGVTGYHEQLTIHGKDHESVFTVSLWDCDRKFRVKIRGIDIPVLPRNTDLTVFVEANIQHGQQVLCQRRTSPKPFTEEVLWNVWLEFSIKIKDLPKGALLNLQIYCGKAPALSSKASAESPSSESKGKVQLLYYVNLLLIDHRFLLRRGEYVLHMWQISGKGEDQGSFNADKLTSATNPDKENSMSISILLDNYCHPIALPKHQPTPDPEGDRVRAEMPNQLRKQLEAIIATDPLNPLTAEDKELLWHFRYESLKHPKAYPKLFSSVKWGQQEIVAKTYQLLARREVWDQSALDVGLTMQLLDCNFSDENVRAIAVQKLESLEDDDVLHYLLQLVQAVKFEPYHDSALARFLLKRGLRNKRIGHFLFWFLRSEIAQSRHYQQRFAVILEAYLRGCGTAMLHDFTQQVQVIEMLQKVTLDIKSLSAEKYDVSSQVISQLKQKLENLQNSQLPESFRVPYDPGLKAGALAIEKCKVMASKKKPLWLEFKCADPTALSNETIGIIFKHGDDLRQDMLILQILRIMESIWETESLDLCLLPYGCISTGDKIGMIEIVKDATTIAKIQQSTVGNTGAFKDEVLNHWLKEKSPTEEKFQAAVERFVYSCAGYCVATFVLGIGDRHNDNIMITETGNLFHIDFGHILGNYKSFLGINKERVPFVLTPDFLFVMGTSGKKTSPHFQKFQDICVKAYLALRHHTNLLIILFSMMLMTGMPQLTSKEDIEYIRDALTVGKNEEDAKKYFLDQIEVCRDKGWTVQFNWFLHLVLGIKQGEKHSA

[3] = MDA-MB-361, 72 h, MDA-MB-361 cells

O=C(Nc1ccncc1)Nc1ccc(-c2nc(NC3CNC3)nc(N3CCOCC3)n2)cc1 [Example 22, 1-{4-[4-(azetidin-3-ylamino)-6-morpholin-4-yl-1,3,5-triazin-2-yl]phenyl}-3-pyridin-4-ylurea]
IC50 (Human mTOR (FLAG-TOR)): 0.00475 µM
IC50 ([1]; MDA-MB-361, 72 h): 1.42 µM
IC50 [2]: 2.44 µM
IC50 (PI3K-α): 0.012 µM
IC50 (PI3K-γ): 0.142 µM

O=C(Nc1ccc(CO)cc1)Nc1ccc(-c2nc(OC3CCOCC3)nc(N3CCOCC3)n2)cc1 [Example 62, 1-[4-(hydroxymethyl)phenyl]-3-{4-[4-morpholin-4-yl-6-(tetrahydro-2H-pyran-4-yloxy)-1,3,5-triazin-2-yl]phenyl}urea]
IC50 (Human mTOR (FLAG-TOR)): 0.00068 µM
IC50 ([1]; MDA-MB-361, 72 h): 0.027 µM
IC50 [2]: 0.034 µM
IC50 (PI3K-α): 0.002 µM
IC50 (PI3K-γ): 0.024 µM

CCCN(CCC)C1CCN(C(=O)c2ccc(NC(=O)Nc3ccc(-c4nc(N5CCOC[C@@H]5C)nc(N5CCOC[C@@H]5C)n4)cc3)cc2)CC1 [Example 624, 1-(4-{4,6-bis[(3S)-3-methylmorpholin-4-yl]-1,3,5-triazin-2-yl}phenyl)-3-(4-{[4-(dipropylamino)piperidin-1-yl]carbonyl}phenyl)urea]
IC50 (Human mTOR (FLAG-TOR)): 0.001 µM
IC50 [1, 3]: 0.004 µM
IC50 ([2]; PC3-mm2 cells): 0.019 µM
IC50 (PI3K-α): 0.0175 µM
IC50 (PI3K-γ): 0.0585 µM

Cc1nc(-c2ccc(NC(=O)Nc3ccncc3)cc2)nc(N2CCOCC2)n1 [Example 161, 1-[4-(4-methyl-6-morpholin-4-yl-1,3,5-triazin-2-yl)phenyl]-3-pyridin-4-ylurea]
IC50 (Human mTOR (FLAG-TOR)): 0.03 µM
IC50 ([1]; MDA-MB-361, 72 h): 0.328 µM
IC50 [2]: 0.675 µM
IC50 (PI3K-α): 0.039 µM
IC50 (PI3K-γ): 0.155 µM

CC(C)N1CCN(C(=O)c2ccc(NC(=O)Nc3ccc(-c4nc(N5CCOCC5)nc(N5CCOC[C@@H]5C)n4)cc3)cc2)CC1 [Example 618, 1-(4-{[4-(1-methylethyl)piperazin-1-yl]carbonyl}phenyl)-3-(4-{4-[(3S)-3-methylmorpholin-4-yl]-6-morpholin-4-yl-1,3,5-triazin-2-yl}phenyl)urea]
IC50 (Human mTOR (FLAG-TOR)): 0.001 µM
IC50 [1, 3]: 0.002 µM
IC50 ([2]; PC3-mm2 cells): 0.013 µM
IC50 (PI3K-α): 0.002 µM
IC50 (PI3K-γ): 0.0185 µM

O=C(Nc1ccc(C(=O)O)cc1)Nc1ccc(-c2nc(N3CCOCC3)nc(N3C4CCC3COC4)n2)cc1 [Example 764, 4-[({4-[4-morpholin-4-yl-6-(3-oxa-8-azabicyclo[3.2.1]oct-8-yl)-1,3,5-triazin-2-yl]phenyl}carbamoyl)amino]benzoic acid]
IC50 (Human mTOR (FLAG-TOR)): 0.00021 µM
IC50 [1, 3]: 0.628 µM
IC50 ([2]; PC3-mm2 cells): 0.678 µM
IC50 (PI3K-α): 0.0085 µM
IC50 (PI3K-γ): 0.0675 µM

Cc1ccc(-c2nc(-c3ccc(NC(=O)Nc4ccc(C(=O)NCCN5CCCC5)cc4)cc3)nc(N3CCOCC3)n2)cc1 [Example 548, 4-[({4-[4-(4-methylphenyl)-6-morpholin-4-yl-1,3,5-triazin-2-yl]phenyl}carbamoyl)amino]-N-(2-pyrrolidin-1-ylethyl)benzamide]
IC50 (Human mTOR (FLAG-TOR)): 0.00975 µM
IC50 ([1]; 72 h, MDA-MB-361 cells): 0.524 µM
IC50 ([2]; PC3-mm2 cells): 0.869 µM
IC50 (PI3K-α): 0.04 µM
IC50 (PI3K-γ): 0.387 µM

Oc1cccc(-c2nc(N3CCOCC3)nc(N3C4CCC3COC4)n2)c1 [Example 683, 3-[4-morpholin-4-yl-6-(3-oxa-8-azabicyclo[3.2.1]oct-8-yl)-1,3,5-triazin-2-yl]phenol]
IC50 (Human mTOR (FLAG-TOR)): 0.025 µM
IC50 ([1]; 72 h, MDA-MB-361 cells): 0.673 µM
IC50 ([2]; PC3-mm2 cells): 0.584 µM
IC50 (PI3K-α): 0.121 µM
IC50 (PI3K-γ): 1.33 µM

CCc1nc(-c2ccc(NC(=O)Nc3ccc(C(=O)N4CCN(c5ccccn5)CC4)cc3)cc2)nc(N2CCOCC2)n1 [Example 534, 1-[4-(4-ethyl-6-morpholin-4-yl-1,3,5-triazin-2-yl)phenyl]-3-{4-[(4-pyridin-2-ylpiperazin-1-yl)carbonyl]phenyl}urea]
IC50 (Human mTOR (FLAG-TOR)): 0.0534 µM
IC50 ([1]; 72 h, MDA-MB-361 cells): 0.0323 µM
IC50 ([2]; PC3-mm2 cells): 0.0737 µM
IC50 (PI3K-α): 0.0021 µM
IC50 (PI3K-γ): 0.0111 µM

CC(C)c1nc(-c2ccc(NC(=O)Nc3ccc(C(=O)NCCN(C)C)cc3)cc2)nc(N2CCOCC2)n1 [Example 305, N-[2-(dimethylamino)ethyl]-4-[({4-[4-(1-methylethyl)-6-morpholin-4-yl-1,3,5-triazin-2-yl]phenyl}carbamoyl)amino]benzamide]
IC50 (Human mTOR (FLAG-TOR)): 0.0006 µM
IC50 ([1]; MDA-MB-361, 72 h): 0.004 µM
IC50 [2]: 0.046 µM
IC50 (PI3K-α): 0.001 µM
IC50 (PI3K-γ): 0.018 µM

CCNC(=O)N1CCC(Oc2nc(-c3ccc(NC(=O)Nc4ccncc4)cc3)nc(N3CCOCC3)n2)CC1 [Example 690, N-ethyl-4-[(4-morpholin-4-yl-6-{4-[(pyridin-4-ylcarbamoyl)amino]phenyl}-1,3,5-triazin-2-yl)oxy]piperidine-1-carboxamide]
IC50 (Human mTOR (FLAG-TOR)): 0.000525 µM
IC50 ([1]; 72 h, MDA-MB-361 cells): 0.112 µM
IC50 ([2]; PC3-mm2 cells): 0.405 µM
IC50 (PI3K-α): 0.005 µM
IC50 (PI3K-γ): 0.0835 µM

O=C(Nc1ccc(-c2nc(NC3CNC3)nc(N3CCOCC3)n2)cc1)Nc1cccnc1 [Example 18, 1-{4-[4-(azetidin-3-ylamino)-6-morpholin-4-yl-1,3,5-triazin-2-yl]phenyl}-3-pyridin-3-ylurea]
IC50 (Human mTOR (FLAG-TOR)): 0.036 µM
IC50 ([1]; MDA-MB-361, 72 h): 2.66 µM
IC50 [2]: 7.1 µM
IC50 (PI3K-α): 0.009 µM
IC50 (PI3K-γ): 0.071 µM

CCCCc1nc(-c2ccc(NC(=O)Nc3ccc(C(=O)O)cc3)cc2)nc(N2CCOCC2)n1 [Example 184, 4-({[4-(4-butyl-6-morpholin-4-yl-1,3,5-triazin-2-yl)phenyl]carbamoyl}amino)benzoic acid]
IC50 (Human mTOR (FLAG-TOR)): 0.004 µM
IC50 ([1]; MDA-MB-361, 72 h): 1.25 µM
IC50 [2]: 2.09 µM
IC50 (PI3K-α): 0.03 µM
IC50 (PI3K-γ): 0.143 µM

Nc1ccc(NC(=O)Nc2ccc(-c3nc(N4CCOCC4)nc(N4CCOCC4)n3)cc2)cc1 [Example 351, 1-(4-aminophenyl)-3-[4-(4,6-dimorpholin-4-yl-1,3,5-triazin-2-yl)phenyl]urea]
IC50 (Human mTOR (FLAG-TOR)): 0.0042 µM and 0.0046 µM
IC50 [1, 3]: 0.05 µM
IC50 ([1]; MDA-MB-361, 72 h): 0.05 µM
IC50 ([2]; PC3-mm2 cells): 0.066 µM
IC50 [2]: 0.066 µM
IC50 (PI3K-α): 0.003 µM
IC50 (PI3K-γ): 0.016 µM
IC50 (PI3K-γ; listed as 497): 0.019 µM

CN(C)CCN(C)C(=O)c1ccc(NC(=O)Nc2ccc(-c3nc(-c4cccs4)nc(N4CCOCC4)n3)cc2)cc1 [Example 562, N-[2-(dimethylamino)ethyl]-N-methyl-4-[({4-[4-morpholin-4-yl-6-(2-thienyl)-1,3,5-triazin-2-yl]phenyl}carbamoyl)amino]benzamide]
IC50 (Human mTOR (FLAG-TOR)): 0.004 µM
IC50 ([1]; 72 h, MDA-MB-361 cells): 0.003 µM
IC50 ([2]; PC3-mm2 cells): 0.093 µM
IC50 (PI3K-α): 0.001 µM
IC50 (PI3K-γ): 0.0105 µM

NS(=O)(=O)N1CCC(Oc2nc(-c3ccc(NC(=O)Nc4ccncc4)cc3)nc(N3CCOCC3)n2)CC1 [Example 692, 4-[(4-morpholin-4-yl-6-{4-[(pyridin-4-ylcarbamoyl)amino]phenyl}-1,3,5-triazin-2-yl)oxy]piperidine-1-sulfonamide]
IC50 (Human mTOR (FLAG-TOR)): 0.00375 µM
IC50 ([1]; 72 h, MDA-MB-361 cells): 0.097 µM
IC50 ([2]; PC3-mm2 cells): 0.326 µM
IC50 (PI3K-α): 0.0032 µM
IC50 (PI3K-γ): 0.029 µM

O=C(Nc1ccc(C(=O)NCCN2CCCC2)cc1)Nc1ccc(-c2nc(-c3ccccc3)nc(N3CCOCC3)n2)cc1 [Example 552, 4-({[4-(4-morpholin-4-yl-6-phenyl-1,3,5-triazin-2-yl)phenyl]carbamoyl}amino)-N-(2-pyrrolidin-1-ylethyl)benzamide]
IC50 (Human mTOR (FLAG-TOR)): 0.00355 µM
IC50 ([1]; 72 h, MDA-MB-361 cells): 0.105 µM
IC50 ([2]; PC3-mm2 cells): 0.243 µM
IC50 (PI3K-α): 0.0115 µM
IC50 (PI3K-γ): 0.127 µM

CN(C)CCNC(=O)c1ccc(NC(=O)Nc2ccc(-c3nc(N4CCOCC4)nc(N4C5CCC4COC5)n3)cc2)cc1 [Example 694, N-[2-(dimethylamino)ethyl]-4-[({4-[4-morpholin-4-yl-6-(3-oxa-8-azabicyclo[3.2.1]oct-8-yl)-1,3,5-triazin-2-yl]phenyl}carbamoyl)amino]benzamide]
IC50 (Human mTOR (FLAG-TOR)): 0.000245 µM
IC50 ([1]; 72 h, MDA-MB-361 cells): < 0.003 µM
IC50 ([2]; PC3-mm2 cells): 0.011 µM
IC50 (PI3K-α): 0.002 µM
IC50 (PI3K-γ): 0.04 µM

CCc1nc(-c2ccc(NC(=O)Nc3ccc(C(=O)O)cc3)cc2)nc(N2CCOCC2)n1 [Example 233, 4-({[4-(4-ethyl-6-morpholin-4-yl-1,3,5-triazin-2-yl)phenyl]carbamoyl}amino)benzoic acid]
IC50 (Human mTOR (FLAG-TOR)): 0.0079 µM
IC50 ([1]; MDA-MB-361, 72 h): 1.21 µM
IC50 [2]: 3.34 µM
IC50 (PI3K-α): 0.055 µM
IC50 (PI3K-γ): 0.121 µM

C[C@H]1COCCN1c1nc(-c2ccc(NC(=O)Nc3ccc(C(=O)N4CCN(C)CC4)cc3)cc2)nc(N2CCOC[C@@H]2C)n1 [Example 565, 1-(4-{4,6-bis[(3S)-3-methylmorpholin-4-yl]-1,3,5-triazin-2-yl}phenyl)-3-{4-[(4-methylpiperazin-1-yl)carbonyl]phenyl}urea]
IC50 (Human mTOR (FLAG-TOR)): 0.001 µM
IC50 ([1]; 72 h, MDA-MB-361 cells): 0.009 µM
IC50 ([2]; PC3-mm2 cells): 0.027 µM
IC50 (PI3K-α): 0.0041 µM
IC50 (PI3K-γ): 0.038 µM

CN(C)C(=O)c1ccc(NC(=O)Nc2ccc(-c3nc(N4CCOCC4)nc(N4C5CCC4COC5)n3)cc2)cc1 [Example 695, N,N-dimethyl-4-[({4-[4-morpholin-4-yl-6-(3-oxa-8-azabicyclo[3.2.1]oct-8-yl)-1,3,5-triazin-2-yl]phenyl}carbamoyl)amino]benzamide]
IC50 (Human mTOR (FLAG-TOR)): 0.00028 µM
IC50 ([1]; 72 h, MDA-MB-361 cells): 0.006 µM
IC50 ([2]; PC3-mm2 cells): 0.007 µM
IC50 (PI3K-α): 0.004 µM
IC50 (PI3K-γ): 0.0705 µM
